The values below come from patent US20200240980A1, “METHOD FOR DELAYED RECTIFIER CURRENT ENHANCEMENT, CHARACTERIZATION, AND ANALYSIS IN HUMAN INDUCED PLURIPOTENT STEM CELLS” (The Research Foundation for The State University of New York, priority 2017, published 2020).

In this data set the test system is IKr expression in human iPSCDCMs. The data set is described as follows: IKr expression in human iPSCDCMs after 48 hour treatment with Endo-Porter transfected morpholino AS oligonucleotide, whole-cell patch clamp. It counts as cell-based. The text has this: Our approach is based on studies showing that morpholino anti-sense (AS) oligonucleotides increased HERG expression in HEK293 cells. We examined the ability of these endoporter (Endo-Porter delivery system) transfected morpholino AS oligonucleotides to increase IKr expression in human iPSCDCMs. The morpholino AS oligonucleotide Endo-Porter, is a proprietary weak-base amphiphilic peptide that was designed to deliver non-ionic substances into the cytosol/nuclear compartment of cells by an endocytosis-mediated process. Following a 48 hour treatment with morpholino AS oligonucleotide (alpha2NS 05Z) significant increase (p<0.05) in IKr expression was observed compared to naïve/vehicle and an inverse morpholino AS oligonucleotide control (MPL ZN9DSZ INV) (Morpholino AS oligonucleotide (n=28): 0.29±0.04 pA/pF, INV control (n=7): 0.11±0.08 pA/pF). […] In naïve/vehicle treated cells we observed a near equal frequency of cells expressing current densities <0.2 pA/pF and >0.2 pA/pF. However, following morpholino AS oligonucleotide treatment cells expressing current densities >0.2 pA/pF increased to 71% p<0.05 as shown in FIG. 4.
On the technique in general: The patch-clamp technique gives a direct electrical read-out from membranes.

In the case of “5′-CAGAACACAGTAGTGAATCAAAACC-3′ (all phosphorodiamidate morpholino (PMO)) [alpha2NS 05Z, morpholino anti-sense oligonucleotide specific for a polyadenylation signal in Intron 9 of the KCNH2 gene]”, the “cells expressing IKr current densities >0.2 pA/pF” value (hiPSCDCMs after morpholino AS oligonucleotide treatment, p<0.05, near equal frequency in naïve/vehicle cells, FIG. 4) came out at 71%. Where the note is “hiPSCDCMs, 48 hour treatment, mean ± spread, n=28 (morpholino AS), n=7 (INV control)”, this substance registered an IKr current density of 0.29±0.04 pA/pF. For the setting “hiPSCDCMs, p<0.05, FIG. 4”, the “distribution of IKr current densities ≤0.2 pA/pF or >0.2 pA/pF versus naïve/vehicle cells” value was “significant shift”.
